In test [1] the test system is human monocyte-derived macrophages (HMDM). The test can be described thus: Macrophage-mediated LDL oxidation in HMDM (oxidized LDL by ELISA and/or TBARS). The test is classed as cell-based. Particulars: for concentrations that significantly inhibit the oxidation of LDL: agent alone, 100 μg/ml LDL, p<0.01 compared to LDL control (FIG. 1, FIG. 2); for concentrations that significantly inhibit the oxidation of LDL / maximum inhibition of LDL oxidation: HMDM; for maximum inhibition of LDL oxidation: each agent individually, dose-dependent, compared to the LDL control, 100 μg/ml LDL (FIG. 1, FIG. 2); for IC50: α-tocopherol alone. Here is the method:
Raw broccoli extracts (“BE” or “B. Extract”) were prepared from four hybrids. […] 50 grams of extract were mixed with equal parts 50mM MES buffer pH 6.0 solution. Samples were blended for approximately 1 minute until homogeneous then maintained at room temperature for 10 min. Filtrates from samples were diluted 1:40 with 50 mM MES buffer for the assay. […] Assays with the broccoli extracts were performed as described above.

Test [2] shares this test system. Conditions: each agent individually, at lower doses; LDL-depleted HMDM (FIGS. 8, 9).
Description: (§1) Blood was drawn and collected from healthy human volunteers, and LDL was isolated by density gradient centrifugation following methods known to one of ordinary skill in the art (e.g., Napolitano et al., Int J Biochem Cell Biol, 35:1127-43, 2002). Monocytes were also isolated from the blood and separated by Ficoll Hypaque centrifugation also according to known methods (e.g., Napolitano et al., Eur J Clin Invest, 35:482-90, 2005), followed by negative magnetic separation and maintained in culture with 20% autologous serum or F-10 medium for 5-7 days to differentiate into human monocyte-derived macrophages (HMDM). […] Following the pre-incubation step, LDL (100 μg/ml) was added and the cells were incubated for 24 hours. Supernatants were used for assessing oxidized LDL by ELISA (Mercodia) and/or TBARS (“Thiobarbituric Acid Reactive Substances”) as described previously (Devaraj et al., J Clin Invest 98:756, 1996). To assess the glutathione:glutathione disulfide (GSH:GSSG) ratio as an indicator of the redox poise of the cell, cells were dislodged by PBS-EDTA and were lysed (Pierce MPER) after a freeze-thaw cycle. After sonication and centrifugation, the cell pellet was stored at −80° C. until the relative levels of GSH and GSSG were assayed (Oxis Biochemicals). […]
Test [3] has as its system quinone reductase. Conditions: for QUINONE REDUCTASE ACTIVITY, Expt. 1 / QUINONE REDUCTASE ACTIVITY, Expt. 2 / QUINONE REDUCTASE ACTIVITY, Expt. 3 / QUINONE REDUCTASE ACTIVITY, Average: HMDM + LDL; for QUINONE REDUCTASE ACTIVITY, Average: average of Expt. 1-3; for quinone reductase activity (in words): each agent individually, LDL-treated HMDM (Table 1, FIGS. 10A,B).
Description: Blood was drawn and collected from healthy human volunteers, and LDL was isolated by density gradient centrifugation following methods known to one of ordinary skill in the art (e.g., Napolitano et al., Int J Biochem Cell Biol, 35:1127-43, 2002). Monocytes were also isolated from the blood and separated by Ficoll Hypaque centrifugation also according to known methods (e.g., Napolitano et al., Eur J Clin Invest, 35:482-90, 2005), followed by negative magnetic separation and maintained in culture with 20% autologous serum or F-10 medium for 5-7 days to differentiate into human monocyte-derived macrophages (HMDM). […] Following the pre-incubation step, LDL (100 μg/ml) was added and the cells were incubated for 24 hours. Supernatants were used for assessing oxidized LDL by ELISA (Mercodia) and/or TBARS (“Thiobarbituric Acid Reactive Substances”) as described previously (Devaraj et al., J Clin Invest 98:756, 1996). To assess the glutathione:glutathione disulfide (GSH:GSSG) ratio as an indicator of the redox poise of the cell, cells were dislodged by PBS-EDTA and were lysed (Pierce MPER) after a freeze-thaw cycle. After sonication and centrifugation, the cell pellet was stored at −80° C. until the relative levels of GSH and GSSG were assayed (Oxis Biochemicals). Quinone reductase activity was assayed following the method described previously (J. Fahey et al., Methods in Enzymology 382, 243-258, 2004).
The test system of test [4] is NQO1. The test can be described thus: Inhibition of LDL oxidation in HMDM with SiNQO1 silencing. Conditions: 100 μg/ml LDL (FIG. 12).
Description: as §1

Like-named read-outs stand apart in the source and are kept apart here.

Take `C[S+]([O-])CCCCN=C=S` (stereo not drawn) [sulforaphane]: the “effect on LDL oxidation” value in test [1] (2 μM sulforaphane individually applied (FIG. 11)) is recorded as “reduced LDL oxidation”. Besides, in test [1], the “concentrations that significantly inhibit the oxidation of LDL” value was “greater than 2 μM” and the “maximum inhibition of LDL oxidation” value came to 58%. The “GSH:GSSG ratio” value in test [2] is recorded as “restored the ratio to normal levels”. Besides, in test [3] (2 μM sulforaphane), the “QUINONE REDUCTASE ACTIVITY, Expt. 1” value is reported as 151.23 nmol/min/mg protein; the “QUINONE REDUCTASE ACTIVITY, Expt. 2” value came to 124.23 nmol/min/mg protein; the “QUINONE REDUCTASE ACTIVITY, Expt. 3” value was 104.56 nmol/min/mg protein; the “QUINONE REDUCTASE ACTIVITY, Average” value was found to be 126.6733 nmol/min/mg protein. In addition, the “quinone reductase activity (in words)” value in test [3] is “restored enzymatic activity to normal levels”.
Turning to `Cc1c(C)c2c(c(C)c1O)CC[C@@](C)(CCC[C@H](C)CCC[C@H](C)CCCC(C)C)O2` [α-tocopherol], the “effect on LDL oxidation” value in test [1] (25 μM α-tocopherol individually applied (FIG. 11)) is “reduced LDL oxidation”. In addition, in test [1], the “concentrations that significantly inhibit the oxidation of LDL” value is “greater than 12.5 μM” and the “maximum inhibition of LDL oxidation” value turned out to be 58%. In test [1] (FIG. 5 experiment), this compound registered an IC50 of 53.1 µM. The IC50 in test [1] (FIG. 7 experiment) came out at 23.6 µM. The “GSH:GSSG ratio” value in test [2] is “restored the ratio to normal levels”. For the same compound, in test [3] (6.25 μM α-tocopherol), the “QUINONE REDUCTASE ACTIVITY, Expt. 1” value was 59.87 nmol/min/mg protein; the “QUINONE REDUCTASE ACTIVITY, Expt. 2” value stood at 68.97 nmol/min/mg protein; the “QUINONE REDUCTASE ACTIVITY, Expt. 3” value amounted to 41.12 nmol/min/mg protein; the “QUINONE REDUCTASE ACTIVITY, Average” value was found to be 56.65 nmol/min/mg protein. Also, in test [3] (12.5 μM α-tocopherol), the “QUINONE REDUCTASE ACTIVITY, Expt. 1” value was 66.45 nmol/min/mg protein; the “QUINONE REDUCTASE ACTIVITY, Expt. 2” value came out at 69.47 nmol/min/mg protein; the “QUINONE REDUCTASE ACTIVITY, Expt. 3” value amounted to 42.25 nmol/min/mg protein; the “QUINONE REDUCTASE ACTIVITY, Average” value was 59.39 nmol/min/mg protein. In addition, in test [3] (25 μM α-tocopherol), the “QUINONE REDUCTASE ACTIVITY, Expt. 1” value worked out at 68.98 nmol/min/mg protein; the “QUINONE REDUCTASE ACTIVITY, Expt. 2” value is recorded as 64.56 nmol/min/mg protein; the “QUINONE REDUCTASE ACTIVITY, Expt. 3” value is 65.14 nmol/min/mg protein; the “QUINONE REDUCTASE ACTIVITY, Average” value is 66.23 nmol/min/mg protein. In test [3] (50 μM α-tocopherol), the “QUINONE REDUCTASE ACTIVITY, Expt. 1” value amounted to 77.14 nmol/min/mg protein; the “QUINONE REDUCTASE ACTIVITY, Expt. 2” value stood at 74.19 nmol/min/mg protein; the “QUINONE REDUCTASE ACTIVITY, Expt. 3” value is 66.23 nmol/min/mg protein; the “QUINONE REDUCTASE ACTIVITY, Average” value is on record as 72.52 nmol/min/mg protein. In addition, in test [3], the “quinone reductase activity (in words)” value is “only a modest effect”. For the same compound, in test [4], the “effectiveness at inhibiting LDL oxidation after NQO1 silencing” value was “reduced but not complete reduction of the effectiveness”.

A word on the IC50: it is the concentration that gives 50% inhibition. Higher therefore signals weaker potency.

Values taken from patent publication US20120258922A1, “S[…] LOW-DENSITY L[…]” (Seminis Vegetable Seeds, Inc., priority 2011, published 2012).
